Assay results: PubChem BioAssay AID2060344 (Molecular Pharmacology Branch, DTP, NCI, 2025)

Tested on: SK-MEL-2 multi-cell spheroids, viability
Test: Anticancer human tumor SK-MEL-2 cell line growth inhibition [TAK];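 note: spheroids exposed to drugs for seven days before readout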;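 for viability, T/C: percent of DMSO vehicle control luminescence so 100% = untreated viability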
Conditions: for IC50: curve of first compound; for viability, T/C: stronger effect = lower value
From the text: Combinatorial screen of targeted agents with TAK-243 and ipatasertib in multi-cell type tumor spheroids
A high-throughput screen of multi-cell type tumor spheroids was designed to identify active combinations of targeted small molecules and TAK-243 or ipatasertib. Complex spheroids include a stromal component modeled by human endothelial cells (HUVEC) and fibroblasts modeled by human mesenchymal stem cells (MSCs). The concentration ranges selected for each drug and investigational agent were based upon clinically achievable concentrations if the clinical Cmax of the agent was known.
Compounds. The drugs and investigational agents: TAK-243 (785004), ipatasertib (767898), everolimus (733504), selumetinib (741078), bortezomib (756655), trametinib (758246), ixazomib (758254), vemurafenib (761431), dabrafenib (764134), sapanisertib (764658), alpelisib (765974), and copanlisib (816437), were obtained from the National Cancer Institute (NCI) Developmental Therapeutics Program Chemical Repository. The FDA-approved anticancer drug set is available from the NCI Developmental Therapeutics Program. […] The stock solutions were prepared in dimethyl sulfoxide (DMSO, Sigma-Aldrich, St. Louis, MO, cat. D2650) at 800-fold the tested concentration and stored at -70 degrees C prior to their use. All drugs and investigational agents were tested over a range starting from a high concentration at or near the clinical Cmax and decreasing in half-log increments. If the clinical Cmax for an agent had not been determined, the highest concentration tested was 10 microM.
NCI60 Cell Culture. NCI60 cell lines were obtained from the NCI Developmental Therapeutics Program Tumor Repository. For each lot of cells, the Repository performed Applied Biosystems AmpFLSTR Identifiler testing with PCR amplification to confirm consistency with the published Identifier STR profile for each cell line. Cells were kept in continuous culture for no more than 20 passages. The optimal seeding densities for each of the cell lines at each time point assessed were determined prior to performing the concentration response studies. Briefly, the NCI60 human tumor lines were grown as monolayers in RPMI 1640 medium supplemented with 10% FBS and 2 mmol/L L-glutamine.
An additional 2 lines were from the NCI60 cell line panel including melanomas, MALME-3M and SK-MEL-2. Pooled donor human umbilical vein endothelial cells (HUVEC, Lonza, cat. CC-2519) and human mesenchymal stem cells (hMSC, Lonza, cat. PT-2501) were purchased from Lonza (Walkersville, MD).
PDMR cell lines were grown in complete medium (DC medium): Dulbecco's modified Eagle's medium (DMEM)/F12 supplemented with 5% fetal bovine serum (FBS), 2 mM L-glutamine, 100 U/mL penicillin and 100 µg/ml streptomycin, 0.4 µg/ml hydrocortisone, 10 ng/ml epidermal growth factor (EGF) recombinant human protein, 24 µg/mL adenine, and 0.1 mg/mL primocin. During culture from frozen stock vials, PDMR cells were cultured in the same medium containing 10 µM Y-27632 (see Table 3). The PDCs were cultured in complete DMEM/F12 media without 10 microM Y-27632 dihydrochloride for at least two passages prior to the screen. The pooled donor HUVEC and hMSC were cultured in endothelial cell growth medium 2 (PromoCell, Heidelberg, Germany, cat. C-22011) and mesenchymal stem cell growth medium 2 (PromoCell, cat. C-28009), respectively. For all experiments, HUVEC and hMSC were used at passages </=5.
For the pre-screen, cell seeding densities were determined from a titration spanning the range from 5,000 to 313 cells per well. The mct-spheroids including 60% malignant cells, 25% HUVEC and 15% MSC dispensed as a mixture into U-bottom Ultra-Low Attachment 384-well plates (Corning, NY)
High-throughput Drug Combination Screening.
Prior to their inoculation into 384-well plates, malignant cells, HUVEC, and hMSC were removed from T flasks using TrypLE express (Thermo Fisher Scientific, cat. 12605036) and harvested by centrifugation for 5 min at 233 x g. […]

[1] = second compound 0.3 µM, first compound 0.0316 µM
[2] = second compound 0.3 µM, first compound 0.1 µM
[3] = second compound 0.949 µM, first compound 0.0316 µM
[4] = second compound 0.949 µM, first compound 0.1 µM
[5] = second compound 3 µM, first compound 0.0316 µM
[6] = second compound 3 µM, first compound 0.1 µM
[7] = second compound 9.49 µM, first compound 0.0316 µM
[8] = second compound 9.49 µM, first compound 0.1 µM
[9] = second compound 30 µM, first compound 0.0316 µM
[10] = second compound 30 µM, first compound 0.1 µM

SMILES: CC(C)(C)c1nc(-c2cccc(NS(=O)(=O)c3c(F)cccc3F)c2F)c(-c2ccnc(N)n2)s1 + CC(C)NCC(C(=O)N1CCN(c2ncnc3c2C(C)CC3O)CC1)c1ccc(Cl)cc1
- IC50 (second compound 0.3 µM): 590 nM
- IC50 (second compound 0.949 µM): 496 nM
- IC50 (second compound 3 µM): 323 nM
- IC50 (second compound 9.49 µM): 285 nM
- IC50 (second compound 30 µM): 230 nM
- viability, T/C [1]: 138%
- viability, T/C [2]: 118%
- viability, T/C (second compound 0.3 µM, first compound 0.316 µM): 75.9%
- viability, T/C (second compound 0.3 µM, first compound 1 µM): 28.6%
- viability, T/C (second compound 0.3 µM, first compound 3.16 µM): 12.5%
- viability, T/C (second compound 0.3 µM, first compound 10 µM): 17.2%
- viability, T/C [3]: 119%
- viability, T/C [4]: 109%
- viability, T/C (second compound 0.949 µM, first compound 0.316 µM): 66.3%
- viability, T/C (second compound 0.949 µM, first compound 1 µM): 25.6%
- viability, T/C (second compound 0.949 µM, first compound 3.16 µM): 8.33%
- viability, T/C (second compound 0.949 µM, first compound 10 µM): 15.6%
- viability, T/C [5]: 108%
- viability, T/C [6]: 105%
- viability, T/C (second compound 3 µM, first compound 0.316 µM): 50.1%
- viability, T/C (second compound 3 µM, first compound 1 µM): 15.7%
- viability, T/C (second compound 3 µM, first compound 3.16 µM): 6.41%
- viability, T/C (second compound 3 µM, first compound 10 µM): 11.7%
- viability, T/C [7]: 88.1%
- viability, T/C [8]: 85.5%
- viability, T/C (second compound 9.49 µM, first compound 0.316 µM): 46.5%
- viability, T/C (second compound 9.49 µM, first compound 1 µM): 9.65%
- viability, T/C (second compound 9.49 µM, first compound 3.16 µM): 4.3%
- viability, T/C (second compound 9.49 µM, first compound 10 µM): 10.2%
- viability, T/C [9]: 73.1%
- viability, T/C [10]: 73.8%
- viability, T/C (second compound 30 µM, first compound 0.316 µM): 41.1%
- viability, T/C (second compound 30 µM, first compound 1 µM): 9.6%
- viability, T/C (second compound 30 µM, first compound 3.16 µM): 5.11%
- viability, T/C (second compound 30 µM, first compound 10 µM): 10%

SMILES: CC(C)CC(NC(=O)CNC(=O)c1cc(Cl)ccc1Cl)B1OC(=O)CC(CC(=O)O)(C(=O)O)O1 (stereo not given) + CC(C)NCC(C(=O)N1CCN(c2ncnc3c2C(C)CC3O)CC1)c1ccc(Cl)cc1
- IC50 (second compound 0.3 µM): 17.1 nM
- IC50 (second compound 0.949 µM): 12.8 nM
- IC50 (second compound 3 µM): 5.07 nM
- IC50 (second compound 9.49 µM): 2.04 nM
- IC50 (second compound 30 µM): < 0.316 nM
- viability, T/C (second compound 0.3 µM, first compound 0.000316 µM): 94.8%
- viability, T/C (second compound 0.3 µM, first compound 0.001 µM): 94.7%
- viability, T/C (second compound 0.3 µM, first compound 0.00316 µM): 85%
- viability, T/C (second compound 0.3 µM, first compound 0.01 µM): 64.9%
- viability, T/C [1]: 32.8%
- viability, T/C [2]: 5.51%
- viability, T/C (second compound 0.949 µM, first compound 0.000316 µM): 81.3%
- viability, T/C (second compound 0.949 µM, first compound 0.001 µM): 76.5%
- viability, T/C (second compound 0.949 µM, first compound 0.00316 µM): 70.3%
- viability, T/C (second compound 0.949 µM, first compound 0.01 µM): 59.5%
- viability, T/C [3]: 20.2%
- viability, T/C [4]: 6.05%
- viability, T/C (second compound 3 µM, first compound 0.000316 µM): 70%
- viability, T/C (second compound 3 µM, first compound 0.001 µM): 67%
- viability, T/C (second compound 3 µM, first compound 0.00316 µM): 53.8%
- viability, T/C (second compound 3 µM, first compound 0.01 µM): 43.3%
- viability, T/C [5]: 20.2%
- viability, T/C [6]: 5.6%
- viability, T/C (second compound 9.49 µM, first compound 0.000316 µM): 52.6%
- viability, T/C (second compound 9.49 µM, first compound 0.001 µM): 55.7%
- viability, T/C (second compound 9.49 µM, first compound 0.00316 µM): 44.2%
- viability, T/C (second compound 9.49 µM, first compound 0.01 µM): 40.3%
- viability, T/C [7]: 17.9%
- viability, T/C [8]: 5.27%
- viability, T/C (second compound 30 µM, first compound 0.000316 µM): 47.8%
- viability, T/C (second compound 30 µM, first compound 0.001 µM): 47.5%
- viability, T/C (second compound 30 µM, first compound 0.00316 µM): 41.7%
- viability, T/C (second compound 30 µM, first compound 0.01 µM): 33.5%
- viability, T/C [9]: 14.4%
- viability, T/C [10]: 4.44%
